The values that follow come from ChEMBL document CHEMBL3991601, “The target landscape of clinical kinase drugs” (Science, 2017).

For orientation: Kd means the free concentration of one partner at which half of the binding sites on the other are occupied at equilibrium, for simple one-to-one binding.

Molecules are shown by their SMILES. Activity calls are given as the source filed them. For most assays here, no stated cut-off is given here; in the data, actives have a measured Kd and inactives only a lower limit.

Experiment [1] addresses TGF-beta receptor type-2 (Homo sapiens, UniProt P37173).
Experiment [2] addresses T1, Ephrin type-B receptor 2 (Homo sapiens, UniProt P29323).
T1 sequence (P29323 whole entry): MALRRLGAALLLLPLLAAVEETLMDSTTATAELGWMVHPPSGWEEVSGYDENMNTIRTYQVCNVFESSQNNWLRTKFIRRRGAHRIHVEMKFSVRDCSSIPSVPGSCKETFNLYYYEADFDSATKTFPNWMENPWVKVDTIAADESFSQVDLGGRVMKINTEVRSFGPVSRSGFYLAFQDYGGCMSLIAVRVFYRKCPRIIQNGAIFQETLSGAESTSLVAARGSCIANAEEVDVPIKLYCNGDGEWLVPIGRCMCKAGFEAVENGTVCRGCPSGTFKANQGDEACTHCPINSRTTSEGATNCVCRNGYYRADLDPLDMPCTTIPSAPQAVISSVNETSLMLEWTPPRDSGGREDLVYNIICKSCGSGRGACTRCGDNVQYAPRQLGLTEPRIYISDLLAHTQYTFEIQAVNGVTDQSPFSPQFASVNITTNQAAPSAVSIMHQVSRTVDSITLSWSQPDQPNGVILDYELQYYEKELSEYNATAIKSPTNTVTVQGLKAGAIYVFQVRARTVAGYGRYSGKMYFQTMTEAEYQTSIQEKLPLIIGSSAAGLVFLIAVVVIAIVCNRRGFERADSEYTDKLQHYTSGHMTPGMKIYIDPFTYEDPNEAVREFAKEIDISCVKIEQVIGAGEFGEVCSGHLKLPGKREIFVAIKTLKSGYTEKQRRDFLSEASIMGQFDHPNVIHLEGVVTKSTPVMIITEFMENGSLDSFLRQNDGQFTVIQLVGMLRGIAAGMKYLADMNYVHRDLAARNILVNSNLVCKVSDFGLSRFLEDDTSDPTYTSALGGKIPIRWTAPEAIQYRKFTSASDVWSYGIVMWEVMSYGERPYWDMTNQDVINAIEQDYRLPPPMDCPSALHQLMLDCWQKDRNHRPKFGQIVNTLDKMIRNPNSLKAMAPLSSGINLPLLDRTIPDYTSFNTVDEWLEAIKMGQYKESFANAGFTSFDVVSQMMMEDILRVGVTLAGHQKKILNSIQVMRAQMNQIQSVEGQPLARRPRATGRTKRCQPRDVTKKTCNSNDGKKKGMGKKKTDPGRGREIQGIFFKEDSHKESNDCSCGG

Experiment [3] deals with Mitogen-activated protein kinase kinase kinase 20 (Homo sapiens, UniProt Q9NYL2).
For experiment [4], the target named is Cyclin-dependent kinase 13 (Homo sapiens, UniProt Q14004).
The target of experiment [5] is cAMP-dependent protein kinase type II-alpha regulatory subunit (Homo sapiens, UniProt P13861).
In experiment [6] the target is T2, Heme oxygenase 2 (Homo sapiens, UniProt P30519).
T2 sequence (P30519 whole entry): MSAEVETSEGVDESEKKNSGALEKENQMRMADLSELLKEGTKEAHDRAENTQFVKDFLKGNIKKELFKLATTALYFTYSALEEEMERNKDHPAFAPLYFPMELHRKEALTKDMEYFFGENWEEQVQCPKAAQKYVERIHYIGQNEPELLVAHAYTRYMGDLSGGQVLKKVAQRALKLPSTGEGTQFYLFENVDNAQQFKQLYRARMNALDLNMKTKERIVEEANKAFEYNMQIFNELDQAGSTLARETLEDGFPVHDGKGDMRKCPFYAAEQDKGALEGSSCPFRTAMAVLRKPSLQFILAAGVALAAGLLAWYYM

Experiment [7] concerns the target T3, Exosome RNA helicase MTR4 (Homo sapiens, UniProt P42285).
T3 sequence (P42285 whole entry): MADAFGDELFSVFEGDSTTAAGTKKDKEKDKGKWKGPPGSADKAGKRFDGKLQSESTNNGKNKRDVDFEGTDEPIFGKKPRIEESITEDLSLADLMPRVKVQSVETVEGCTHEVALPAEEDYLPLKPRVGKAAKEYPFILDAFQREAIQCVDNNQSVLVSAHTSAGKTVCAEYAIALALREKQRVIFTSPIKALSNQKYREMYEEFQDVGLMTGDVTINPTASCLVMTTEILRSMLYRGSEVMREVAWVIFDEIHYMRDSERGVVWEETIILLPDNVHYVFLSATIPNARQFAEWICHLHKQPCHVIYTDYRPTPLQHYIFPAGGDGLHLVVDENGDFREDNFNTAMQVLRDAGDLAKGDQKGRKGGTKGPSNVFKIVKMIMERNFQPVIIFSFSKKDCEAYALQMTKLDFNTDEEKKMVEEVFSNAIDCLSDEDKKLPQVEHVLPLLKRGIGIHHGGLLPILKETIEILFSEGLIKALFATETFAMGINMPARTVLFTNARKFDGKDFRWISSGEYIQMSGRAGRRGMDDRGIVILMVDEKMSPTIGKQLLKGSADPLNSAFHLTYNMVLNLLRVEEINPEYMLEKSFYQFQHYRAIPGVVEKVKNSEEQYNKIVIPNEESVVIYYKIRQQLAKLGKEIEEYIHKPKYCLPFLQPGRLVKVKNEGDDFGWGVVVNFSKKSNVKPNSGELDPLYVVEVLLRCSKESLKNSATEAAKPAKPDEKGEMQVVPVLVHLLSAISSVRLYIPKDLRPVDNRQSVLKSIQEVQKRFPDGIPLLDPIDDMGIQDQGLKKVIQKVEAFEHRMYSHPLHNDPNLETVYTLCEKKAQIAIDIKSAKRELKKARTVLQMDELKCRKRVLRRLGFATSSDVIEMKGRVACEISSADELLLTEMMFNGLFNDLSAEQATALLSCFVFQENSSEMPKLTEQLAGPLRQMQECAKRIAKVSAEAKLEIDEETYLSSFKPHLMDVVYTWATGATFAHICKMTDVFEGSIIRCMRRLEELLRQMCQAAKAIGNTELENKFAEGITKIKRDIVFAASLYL

For experiment [8], the target named is Casein kinase II subunit alpha' (Homo sapiens, UniProt P19784).
Chain of Casein kinase II subunit alpha' (P19784 whole entry): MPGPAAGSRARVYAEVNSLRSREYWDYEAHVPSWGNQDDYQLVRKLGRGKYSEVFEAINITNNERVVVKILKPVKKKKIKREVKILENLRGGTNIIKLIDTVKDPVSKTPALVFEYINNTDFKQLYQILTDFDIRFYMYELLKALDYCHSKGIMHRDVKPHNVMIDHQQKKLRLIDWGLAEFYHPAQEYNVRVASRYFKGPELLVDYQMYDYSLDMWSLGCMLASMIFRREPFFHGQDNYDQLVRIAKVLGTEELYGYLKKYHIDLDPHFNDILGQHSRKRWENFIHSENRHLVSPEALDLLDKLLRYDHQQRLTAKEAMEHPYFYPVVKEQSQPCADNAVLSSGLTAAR

Chain of cAMP-dependent protein kinase type II-alpha regulatory subunit (P13861 whole entry): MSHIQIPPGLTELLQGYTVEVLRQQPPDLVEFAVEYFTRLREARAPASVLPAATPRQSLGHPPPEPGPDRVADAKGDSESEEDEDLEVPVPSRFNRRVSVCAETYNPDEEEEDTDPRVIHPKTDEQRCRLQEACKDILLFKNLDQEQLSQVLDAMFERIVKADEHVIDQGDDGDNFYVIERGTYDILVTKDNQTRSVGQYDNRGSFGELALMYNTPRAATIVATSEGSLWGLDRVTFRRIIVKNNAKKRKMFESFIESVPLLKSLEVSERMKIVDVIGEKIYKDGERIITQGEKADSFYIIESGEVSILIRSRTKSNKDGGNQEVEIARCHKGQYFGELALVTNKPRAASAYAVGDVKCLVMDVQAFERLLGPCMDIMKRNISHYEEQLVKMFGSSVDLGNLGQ
Chain of Cyclin-dependent kinase 13 (Q14004 whole entry): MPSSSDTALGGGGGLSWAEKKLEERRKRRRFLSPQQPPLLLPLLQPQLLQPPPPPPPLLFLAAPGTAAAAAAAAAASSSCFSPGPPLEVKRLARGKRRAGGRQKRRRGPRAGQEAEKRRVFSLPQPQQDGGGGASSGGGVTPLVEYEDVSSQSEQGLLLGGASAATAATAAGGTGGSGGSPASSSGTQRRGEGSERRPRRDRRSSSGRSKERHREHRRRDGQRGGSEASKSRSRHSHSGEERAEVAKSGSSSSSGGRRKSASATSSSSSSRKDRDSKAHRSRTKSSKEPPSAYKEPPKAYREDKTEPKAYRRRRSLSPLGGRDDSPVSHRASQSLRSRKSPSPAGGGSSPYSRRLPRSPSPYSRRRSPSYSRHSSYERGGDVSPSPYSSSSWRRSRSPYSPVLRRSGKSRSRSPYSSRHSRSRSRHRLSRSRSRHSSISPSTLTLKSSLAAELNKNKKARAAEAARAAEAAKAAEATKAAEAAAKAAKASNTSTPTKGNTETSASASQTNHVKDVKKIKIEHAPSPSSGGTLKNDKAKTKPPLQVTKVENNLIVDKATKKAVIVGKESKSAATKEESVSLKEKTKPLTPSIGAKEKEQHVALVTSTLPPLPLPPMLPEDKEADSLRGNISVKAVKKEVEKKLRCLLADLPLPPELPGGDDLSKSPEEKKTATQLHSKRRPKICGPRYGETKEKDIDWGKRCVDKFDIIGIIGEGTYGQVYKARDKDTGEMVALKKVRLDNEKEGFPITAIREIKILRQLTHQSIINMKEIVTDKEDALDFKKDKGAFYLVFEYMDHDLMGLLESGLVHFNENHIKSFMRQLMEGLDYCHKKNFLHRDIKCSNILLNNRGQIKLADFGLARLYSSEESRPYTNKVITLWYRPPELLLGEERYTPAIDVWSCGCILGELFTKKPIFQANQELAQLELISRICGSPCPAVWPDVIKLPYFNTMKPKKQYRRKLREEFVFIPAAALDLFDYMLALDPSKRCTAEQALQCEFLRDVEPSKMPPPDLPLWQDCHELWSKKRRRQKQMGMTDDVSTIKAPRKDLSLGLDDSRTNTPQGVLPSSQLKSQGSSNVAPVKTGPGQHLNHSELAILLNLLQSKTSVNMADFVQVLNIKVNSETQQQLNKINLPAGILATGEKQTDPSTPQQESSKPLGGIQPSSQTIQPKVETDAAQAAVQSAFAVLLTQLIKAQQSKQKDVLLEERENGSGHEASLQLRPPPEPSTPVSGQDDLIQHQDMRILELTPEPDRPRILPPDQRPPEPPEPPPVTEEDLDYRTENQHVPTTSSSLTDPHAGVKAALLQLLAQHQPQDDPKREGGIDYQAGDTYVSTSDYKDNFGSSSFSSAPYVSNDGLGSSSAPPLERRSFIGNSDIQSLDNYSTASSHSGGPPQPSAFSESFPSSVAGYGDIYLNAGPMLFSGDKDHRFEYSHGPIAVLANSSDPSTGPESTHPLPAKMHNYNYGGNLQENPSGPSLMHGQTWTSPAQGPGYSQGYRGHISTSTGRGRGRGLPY
Chain of Mitogen-activated protein kinase kinase kinase 20 (Q9NYL2 whole entry): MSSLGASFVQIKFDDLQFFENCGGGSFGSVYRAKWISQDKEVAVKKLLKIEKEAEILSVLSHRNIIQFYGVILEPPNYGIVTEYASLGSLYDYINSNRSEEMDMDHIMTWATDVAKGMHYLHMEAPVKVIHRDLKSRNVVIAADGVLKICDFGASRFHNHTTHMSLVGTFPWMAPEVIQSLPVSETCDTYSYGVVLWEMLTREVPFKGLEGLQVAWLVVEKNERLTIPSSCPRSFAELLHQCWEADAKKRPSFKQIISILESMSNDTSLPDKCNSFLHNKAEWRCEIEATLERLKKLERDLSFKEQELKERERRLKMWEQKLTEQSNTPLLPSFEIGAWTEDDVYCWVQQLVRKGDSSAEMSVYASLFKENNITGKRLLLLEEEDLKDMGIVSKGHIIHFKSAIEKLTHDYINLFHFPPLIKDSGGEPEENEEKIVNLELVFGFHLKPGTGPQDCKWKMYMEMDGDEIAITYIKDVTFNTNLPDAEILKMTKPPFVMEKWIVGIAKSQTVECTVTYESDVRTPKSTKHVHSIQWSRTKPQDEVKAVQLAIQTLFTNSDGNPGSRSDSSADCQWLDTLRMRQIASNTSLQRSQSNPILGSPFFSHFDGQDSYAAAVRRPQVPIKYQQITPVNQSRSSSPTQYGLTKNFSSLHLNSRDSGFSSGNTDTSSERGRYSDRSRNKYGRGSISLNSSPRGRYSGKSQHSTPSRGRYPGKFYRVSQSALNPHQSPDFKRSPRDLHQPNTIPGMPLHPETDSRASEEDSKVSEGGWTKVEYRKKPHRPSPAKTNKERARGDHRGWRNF
Chain of TGF-beta receptor type-2 (P37173 whole entry): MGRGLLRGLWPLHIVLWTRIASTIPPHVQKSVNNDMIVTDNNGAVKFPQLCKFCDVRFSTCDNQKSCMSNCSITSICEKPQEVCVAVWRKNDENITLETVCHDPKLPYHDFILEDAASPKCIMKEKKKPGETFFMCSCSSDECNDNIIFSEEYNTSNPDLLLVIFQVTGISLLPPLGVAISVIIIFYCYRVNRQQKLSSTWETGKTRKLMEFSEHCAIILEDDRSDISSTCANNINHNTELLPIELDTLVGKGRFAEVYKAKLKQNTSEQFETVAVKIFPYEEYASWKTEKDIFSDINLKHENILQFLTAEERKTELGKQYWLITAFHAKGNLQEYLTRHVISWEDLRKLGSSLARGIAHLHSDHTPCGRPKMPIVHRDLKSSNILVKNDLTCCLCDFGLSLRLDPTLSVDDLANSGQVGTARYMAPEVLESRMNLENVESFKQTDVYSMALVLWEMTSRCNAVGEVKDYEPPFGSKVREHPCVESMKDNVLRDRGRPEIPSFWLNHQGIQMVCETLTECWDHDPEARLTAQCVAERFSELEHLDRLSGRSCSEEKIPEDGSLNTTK

Regarding `Cn1cc(-c2cnn3c(N)c(Br)c([C@@H]4CCCNC4)nc23)cn1` [SCH-900776], the equilibrium dissociation constant (Kd) in experiment [1] was 4.72 µM (active); in experiment [2] it was > 30 µM (inactive); in experiment [3], > 30 µM (inactive); in experiment [4], > 30 µM (inactive); in experiment [5] it was > 30 µM (inactive); in experiment [6], > 30 µM (inactive). Also, the Kd in experiment [7] was > 30 µM (inactive); in experiment [8] it was 0.279 µM (active).
Take `CO[C@H]1C[C@@H]2CC[C@@H](C)[C@@](O)(O2)C(=O)C(=O)N2CCCC[C@H]2C(=O)O[C@H]([C@H](C)C[C@@H]2CC[C@@H](O)[C@H](OC)C2)CC(=O)[C@H](C)/C=C(\C)[C@@H](O)[C@@H](OC)C(=O)[C@H](C)C[C@H](C)/C=C/C=C/C=C/1C` [SIROLIMUS]: the Kd in experiment [1], in experiment [2], in experiment [3], in experiment [4], in experiment [5] and in experiment [6] was > 30 µM (inactive) throughout. The Kd in experiment [7] and in experiment [8] was > 30 µM (inactive) throughout.
Regarding `CCS(=O)(=O)c1cccc(-c2cc(C(=O)NC3CCN(C)CC3)c(C)c3[nH]c4ncc(C)cc4c23)c1` [TAK-901], the Kd in experiment [1] is > 30 µM (inactive); in experiment [2], 0.669 µM (active); in experiment [3], > 30 µM (inactive); in experiment [4], > 30 µM (inactive); in experiment [5], > 30 µM (inactive); in experiment [6], > 30 µM (inactive). For the same compound, the figures for the Kd in experiment [7] and in experiment [8] were > 30 µM (inactive) and 28.9 µM (active), respectively.
In the case of `CO[C@H]1C[C@@H]2CC[C@@H](C)[C@@](O)(O2)C(=O)C(=O)N2CCCC[C@H]2C(=O)O[C@H]([C@H](C)C[C@@H]2CC[C@@H](OC(=O)C(C)(CO)CO)[C@H](OC)C2)CC(=O)[C@H](C)/C=C(\C)[C@@H](O)[C@@H](OC)C(=O)[C@H](C)C[C@H](C)/C=C/C=C/C=C/1C` [TEMSIROLIMUS], the Kd in experiment [1], in experiment [2], in experiment [3], in experiment [4], in experiment [5] and in experiment [6] was > 30 µM (inactive) in each case. In addition, the Kd in experiment [7] and in experiment [8] was > 30 µM (inactive) throughout.
`COc1cc2c(Nc3ccc(Cl)c(Cl)c3F)ncnc2cc1OC[C@@H]1C[C@@H]2CN(C)C[C@@H]2C1` [TESEVATINIB]: the Kd in experiment [1] was > 30 µM (inactive); in experiment [2], 0.448 µM (active); in experiment [3], > 30 µM (inactive); in experiment [4] it was > 30 µM (inactive); in experiment [5], > 30 µM (inactive); in experiment [6], > 30 µM (inactive). Besides, the Kd in experiment [7] and in experiment [8] was > 30 µM (inactive) throughout.
Consider `O=C(Cc1ccc(-c2ccc(OCCN3CCOCC3)cc2)cn1)NCc1ccccc1` [TIRBANIBULIN], for which the Kd in experiment [1], in experiment [2], in experiment [3], in experiment [4], in experiment [5] and in experiment [6] was > 30 µM (inactive) throughout. The Kd in experiment [7] and in experiment [8] was > 30 µM (inactive) in each case.
As for `O=C1NC(=O)[C@@H](c2cn3c4c(cccc24)CCC3)[C@@H]1c1c[nH]c2ccccc12` [TIVANTINIB], the Kd in experiment [1] was > 30 µM (inactive); in experiment [2], > 30 µM (inactive); in experiment [3] it was > 30 µM (inactive); in experiment [4], > 30 µM (inactive); in experiment [5], > 30 µM (inactive); in experiment [6], 0.119 µM. For the same compound, the Kd in experiment [7] and in experiment [8] was > 30 µM (inactive) each time.
For `C[C@@H](NC(=O)c1ncnc(N)c1Cl)c1ncc(C(=O)Nc2cc(C(F)(F)F)c(Cl)cn2)s1` [TOVORAFENIB], the dissociation constant (Kd) in experiment [1] was 1.64 µM; in experiment [2] it was > 30 µM (inactive); in experiment [3], 0.45 µM (active); in experiment [4], > 30 µM (inactive); in experiment [5], > 30 µM (inactive); in experiment [6], > 30 µM (inactive). The Kd in experiment [7] and in experiment [8] was > 30 µM (inactive) in each case.
Regarding `Cc1cc(Nc2ncnc3ccc(NC4=NC(C)(C)CO4)cc23)ccc1Oc1ccn2ncnc2c1` [TUCATINIB], the Kd in experiment [1], in experiment [2], in experiment [3], in experiment [4], in experiment [5] and in experiment [6] was > 30 µM (inactive) in each case. For the same compound, the Kd in experiment [7] and in experiment [8] was > 30 µM (inactive) in each case.
For the compound `CC(C)c1cc(CNc2nc(Nc3cc(C4CC4)[nH]n3)cc(N3CCN(C)CC3)n2)on1` [XL-228], the Kd in experiment [1] is > 30 µM (inactive); in experiment [2], 2.51 µM (active); in experiment [3], > 30 µM (inactive); in experiment [4], > 30 µM (inactive); in experiment [5], > 30 µM (inactive); in experiment [6], > 30 µM (inactive). Further, the Kd in experiment [7] is > 30 µM (inactive); in experiment [8], 2.44 µM (active).
For `CN1C/C=C/CCOc2cccc(c2)-c2ccnc(n2)Nc2cccc(c2)C1` [ZOTIRACICLIB], the Kd in experiment [1], in experiment [2], in experiment [3], in experiment [4], in experiment [5] and in experiment [6] was > 30 µM (inactive) throughout. In addition, the results for the Kd in experiment [7] and in experiment [8] were > 30 µM (inactive) and 2.3 µM (active), respectively.
